In doi:10.1101/2025.07.09.663793, “Activating and inhibiting nucleotide signals coordinate bacterial anti-phage defense” (bioRxiv, 2025):

How the values were obtained:
CloA (SeCloA) [1] = target: T1, CloA (SeCloA) (Salmonella enterica, UniProt A0A5H6DAK1, H126A/E129A); test: […] Å cryo-EM structure of CloA–dGTP–dTTP; assay type: binding
T1 construct: gene dgt; CloA^HEAA, octamer

CloA (SeCloA) [2] = target: T2, CloA (SeCloA); test: activation of purified CloA dGTPase, phosphate release and LC-MS; assay type: biochemical, Salmonella enterica
T2 construct: wild-type CloA

CloA (SeCloA) [3] = target: T2, CloA (SeCloA); test: inhibition of purified CloA dGTPase, phosphate release (malachite green); assay type: biochemical, Salmonella enterica
CloA (SeCloA) [4] = target: T3, CloA (SeCloA); test: […] Å cryo-EM of CloA co-expressed with CloB; LC-MS of released ligand; dGTPase inhibition (malachite green); assay type: biochemical, Salmonella enterica
T3 construct: full-length CloA from S. enterica SA20044414, octamer

[5] = target: Salmonella enterica SA20044414 Clover protein A (CloA), wild type (Salmonella enterica SA20044414); test: cryo-EM structure; apo Salmonella CloA, 1 mg/mL, vitrified at 4°C; C4 symmetry
[6] = target: Shewanella putrefaciens CN-32 dGTPase (Shewanella putrefaciens CN-32); test: crystal structure; SpdGTPase at 10 mg/mL in 20 mM HEPES-KOH pH 7.5, 100 mM KCl; hanging drop, 18°C; reservoir 0.2 M magnesium chloride, 0.1 M HEPES-NaOH pH 7.5, 30% PEG-400

Cc1cn([C@H]2C[C@H](O)[C@@H](COP(=O)(O)OP(=O)(O)OP(=O)(O)O)O2)c(=O)[nH]c1=O [dTTP] was tested, and the “2.6 Å cryo-EM structure of CloA-dGTP-dTTP” value (CloA (SeCloA) [1]) was “In the CloA–dGTP–dTTP active state structure, dTTP is bound at the CloAAB interface in an adjacent pocket” and the EC50 (CloA (SeCloA) [2]) was about 15 µM.
Cc1cn([C@H]2C[C@H](OP(=O)(O)OC[C@H]3O[C@@H](n4cc(C)c(=O)[nH]c4=O)C[C@@H]3O)[C@@H](COP(=O)(O)OP(=O)(O)O)O2)c(=O)[nH]c1=O [p2diT] gave an IC50 (CloA (SeCloA) [3]) of about 20.9 µM.
Cc1cn([C@H]2C[C@H](OP(=O)(O)OC[C@H]3O[C@@H](n4cc(C)c(=O)[nH]c4=O)C[C@@H]3O)[C@@H](COP(=O)(O)OP(=O)(O)OP(=O)(O)O)O2)c(=O)[nH]c1=O [p3diT, 5′-triphosphothymidyl-3′5′-thymidine] gave an IC50 (CloA (SeCloA) [4]) of about 7.6 µM.
“Salmonella enterica SA20044414 Clover protein A (CloA), wild type (enzyme)” was tested, and the stoichiometry N [5] was 8.
In the case of “Shewanella putrefaciens CN-32 dGTPase (enzyme)”, the stoichiometry N [6] is reported as 6.
